What was measured:
Conditions in all cases: exposure time: 72 h
E21 [1] = patient-derived glioblastoma stem cells of mesenchymal subtype; experiment: phenotypic distance (Euclidean, principal components) from DMSO controls (arbitrary units); higher = stronger morphological change
FT3469 [2] = normal neural stem cell line; experiment: as above
E28 [3] = patient-derived glioblastoma stem cells of classical subtype; experiment: as above
E57 [4] = patient-derived glioblastoma stem cells of mesenchymal subtype; experiment: as above
E34 [5] = patient-derived glioblastoma stem cells of proneural subtype; experiment: as above
E13 [6] = patient-derived glioblastoma stem cells of classical subtype; experiment: as above
E31 [7] = patient-derived glioblastoma stem cells of proneural subtype; experiment: as above
E21 [8] = experiment: surviving fraction (nuclei count normalised to DMSO); higher = more cells surviving (less toxic)
FT3469 [9] = experiment: as above
E28 [10] = experiment: as above
E57 [11] = experiment: as above
E34 [12] = experiment: as above
E13 [13] = experiment: as above
E31 [14] = experiment: as above
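Throughout, for phenotypic distance (Euclidean, principal components) from DMSO controls: cell Painting imaging in 384-well plates, CellProfiler features reduced to at least 20 principal components, Euclidean distance versus same-plate DMSO vehicle wells (0.1% v/v), median over six images per well.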
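Throughout, for surviving fraction (nuclei count normalised to DMSO): nuclei counted by high-content imaging of Hoechst-stained cells in laminin-coated 384-well plates, relative to 0.1% DMSO vehicle wells, with staurosporine as cell-death control.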

COC(=O)C1=C(C)NC(C)=C(C(=O)OCC(C)C)C1c1ccccc1[N+](=O)[O-] (stereo not drawn) [Nisoldipine]
Conditions	phenotypic distance	surviving fraction
E13 [6], 4.1 nM	0.597	–
E13 [6], 12.3 nM	0.435	–
E13 [6], 37 nM	0.491	–
E13 [6], 111.1 nM	3.02	–
E13 [6], 333.3 nM	1.31	–
E13 [6], 1000 nM	1.21	–
E13 [6], 3000 nM	1.2	–
E13 [13], 4.1 nM	–	0.894
E13 [13], 12.3 nM	–	1.08
E13 [13], 37 nM	–	0.924
E13 [13], 111.1 nM	–	0.974
E13 [13], 333.3 nM	–	0.947
E13 [13], 1000 nM	–	0.946
E13 [13], 3000 nM	–	0.883
E21 [1], 4.1 nM	0.832	–
E21 [1], 12.3 nM	0.907	–
E21 [1], 37 nM	1.12	–
E21 [1], 111.1 nM	1.2	–
E21 [1], 333.3 nM	0.961	–
E21 [1], 1000 nM	0.669	–
E21 [1], 3000 nM	1.16	–
E21 [8], 4.1 nM	–	0.82
E21 [8], 12.3 nM	–	0.905
E21 [8], 37 nM	–	0.945
E21 [8], 111.1 nM	–	0.892
E21 [8], 333.3 nM	–	0.945
E21 [8], 1000 nM	–	0.942
E21 [8], 3000 nM	–	0.857
E28 [3], 4.1 nM	0.647	–
E28 [3], 12.3 nM	0.706	–
E28 [3], 37 nM	1.08	–
E28 [3], 111.1 nM	0.981	–
E28 [3], 333.3 nM	0.997	–
E28 [3], 1000 nM	0.908	–
E28 [3], 3000 nM	0.792	–
E28 [10], 4.1 nM	–	0.944
E28 [10], 12.3 nM	–	0.957
E28 [10], 37 nM	–	0.921
E28 [10], 111.1 nM	–	0.86
E28 [10], 333.3 nM	–	0.843
E28 [10], 1000 nM	–	0.972
E28 [10], 3000 nM	–	0.9
E31 [7], 4.1 nM	0.922	–
E31 [7], 12.3 nM	1.01	–
E31 [7], 37 nM	1.26	–
E31 [7], 111.1 nM	0.944	–
E31 [7], 333.3 nM	0.976	–
E31 [7], 1000 nM	1.03	–
E31 [7], 3000 nM	1.31	–
E31 [14], 4.1 nM	–	0.972
E31 [14], 12.3 nM	–	0.914
E31 [14], 37 nM	–	0.886
E31 [14], 111.1 nM	–	0.892
E31 [14], 333.3 nM	–	0.949
E31 [14], 1000 nM	–	0.996
E31 [14], 3000 nM	–	0.938
E34 [5], 4.1 nM	2	–
E34 [5], 12.3 nM	0.511	–
E34 [5], 37 nM	0.835	–
E34 [5], 111.1 nM	0.542	–
E34 [5], 333.3 nM	0.889	–
E34 [5], 1000 nM	0.614	–
E34 [5], 3000 nM	1.06	–
E34 [12], 4.1 nM	–	0.949
E34 [12], 12.3 nM	–	0.965
E34 [12], 37 nM	–	1.04
E34 [12], 111.1 nM	–	0.931
E34 [12], 333.3 nM	–	0.853
E34 [12], 1000 nM	–	0.959
E34 [12], 3000 nM	–	0.955
E57 [4], 4.1 nM	0.873	–
E57 [4], 12.3 nM	0.508	–
E57 [4], 37 nM	0.494	–
E57 [4], 111.1 nM	0.633	–
E57 [4], 333.3 nM	0.615	–
E57 [4], 1000 nM	0.552	–
E57 [4], 3000 nM	0.478	–
E57 [11], 4.1 nM	–	0.904
E57 [11], 12.3 nM	–	0.985
E57 [11], 37 nM	–	0.923
E57 [11], 111.1 nM	–	0.969
E57 [11], 333.3 nM	–	0.929
E57 [11], 1000 nM	–	1.07
E57 [11], 3000 nM	–	0.96
FT3469 [2], 4.1 nM	0.816	–
FT3469 [2], 12.3 nM	1.12	–
FT3469 [2], 37 nM	0.632	–
FT3469 [2], 111.1 nM	0.827	–
FT3469 [2], 333.3 nM	1.05	–
FT3469 [2], 1000 nM	1.4	–
FT3469 [2], 3000 nM	0.987	–
FT3469 [9], 4.1 nM	–	0.965
FT3469 [9], 12.3 nM	–	0.938
FT3469 [9], 37 nM	–	1.04
FT3469 [9], 111.1 nM	–	0.966
FT3469 [9], 333.3 nM	–	0.965
FT3469 [9], 1000 nM	–	0.942
FT3469 [9], 3000 nM	–	0.896
